According to US20060122228A1, “Methods and compositions using immunomodulatory compounds for treatment and management of central nervous system injury” (priority 2004, published 2006):
pIC50: −log10 of the molar value. Several values for one entry are separate records, joined by “and”; a condition that tells them apart may be missing. Identical values can stand only once. Like-named read-outs stand apart in the source and are kept apart here.

Legend:
[1] = tested on: TNF-α production; experiment: Inhibition of TNF-α production following LPS-stimulation of human PBMC; assay type: cell-based
[2] = tested on: IL-10 production; experiment: LPS-stimulated production of IL-10 by PBMC; assay type: cell-based
[3] = tested on: IL-1β production; experiment: LPS-stimulated production of IL-1β by PBMC; assay type: cell-based
[4] = tested on: IL-6 production; experiment: LPS-stimulated production of IL-6 by PBMC; assay type: cell-based
[5] = tested on: IFN-γ production; experiment: Augmentation of IFN-γ production following TCR activation of T-cells; assay type: cell-based
[6] = tested on: IL-2 production; experiment: Augmentation of IL-2 production following TCR activation of PBMC; assay type: cell-based
[7] = tested on: TNF-α production; details: LPS-stimulated human whole blood, cited from earlier work; for pIC50: read-out: IC50 for inhibiting production of TNF-α
[8] = tested on: T-cells; experiment: Stimulation of T-cell proliferation following primary induction by T-cell receptor (TCR) activation; assay type: cell-based
[9] = tested on: TNF-α production; details: LPS-stimulated PBMC, cited from earlier work; for pIC50: read-out: IC50 for inhibiting production of TNF-α
[10] = cited from earlier work
[11] = tested on: MM.IS cells; experiment: Inhibition of proliferation of MM.IS cells; assay type: cell-based; details: read-out: concentration achieving 50% inhibition of proliferation
[12] = tested on: Hs Sultan cells; experiment: Inhibition of proliferation of Hs Sultan cells; assay type: cell-based; details: read-out: concentration achieving 50% inhibition of proliferation

## Nc1cccc2c1CN(C1CCC(=O)NC1=O)C2=O (stereo not shown) [3-(4-amino-1-oxo-1,3-dihydro-isoindol-2-yl)-piperidine-2,6-dione]
[1]
  effect on LPS-stimulated production of TNF-α: dose-dependent inhibition
[2]
  effect on production of the anti-inflammatory cytokine IL-10: increased production
[3]
  effect on LPS-stimulated production of IL-1β: dose-dependent inhibition
[4]
  effect on LPS-stimulated production of IL-6: dose-dependent inhibition
[5]
  potency relative to thalidomide in augmenting the production of IFN-γ: 50-100 times
[6]
  potency relative to thalidomide in augmenting the production of IL-2: 50-100 times
[7]
  IC50 for inhibiting production of TNF-α: ~0.1036 µg/mL
  pIC50: ~6.32
[8]
  potency relative to thalidomide in stimulating the proliferation of T-cells: 50-100 times
[9]
  IC50 for inhibiting production of TNF-α: ~0.0259 µg/mL
  pIC50: ~7.00

## Nc1cccc2c1CN(C1CCC(=O)NC1=O)C2=O (stereo not shown) [Form A, 3-(4-amino-1-oxo-1,3 dihydro-isoindol-2-yl)-piperidene-2,6-dione]
[10]; anhydrous polymorphs
  thermodynamic stability among polymorphs: most thermodynamically stable anhydrous polymorph

## Nc1cccc2c1CN(C1CCC(=O)NC1=O)C2=O (stereo not shown) [Form E, 3-(4-amino-1-oxo-1,3 dihydro-isoindol-2-yl)-piperidene-2,6-dione]
[10]
  stability / interconversion in aqueous solvent systems: most stable form

## O=C1CCC(N2C(=O)c3ccccc3C2=O)C(=O)N1 (stereo not shown) [Thalidomide, thalidomide, reference compound]
[9]
  IC50 for inhibiting production of TNF-α: ~50.2 µg/mL
  pIC50: ~3.71

## Nc1cccc2c1C(=O)N(C1CCC(=O)NC1=O)C2=O (stereo not shown) [4-(amino)-2-(2,6-dioxo(3-piperidyl))-isoindoline-1,3-dione]
[11]
  IC50: 0.00273 µg/mL to 0.0273 µg/mL and 10 nM to 100 nM
[12]
  IC50: 0.00273 µg/mL to 0.0273 µg/mL and 10 nM to 100 nM
[7]
  IC50 for inhibiting production of TNF-α: ~0.00683 µg/mL
  pIC50: ~7.60
[9]
  IC50 for inhibiting production of TNF-α: ~0.00655 µg/mL
  pIC50: ~7.62

## Nc1cccc2c1CN(C1CCC(=O)NC1=O)C2=O (stereo not shown) [Form B, 3-(4-amino-1-oxo-1,3 dihydro-isoindol-2-yl)-piperidene-2,6-dione]
[10]
  stability / interconversion in aqueous solvent systems: converts to Form E
